In ChEMBL document CHEMBL1955827, “Influence of ring size on the cognition-enhancing activity of DM235 and MN19, two potent nootropic drugs” (Bioorg Med Chem Lett, 2012):
The source made the active and inactive calls. The calls are words filed in the database; no cut-off is given here.

Tests used:
Mus musculus [1] = assay: Nootropic activity against scopolamine-induced amnesia in mouse assessed as increase in latency time to enter dark room at 10 mg/kg, ip administered 20 mins prior to test by passive avoidance test (reference value: 91.7 sec); assay type: functional; conditions: route intraperitoneal
Mus musculus [2] = assay: Neurotoxicity in mouse assessed as effect on motor coordination at 10 mg/kg, ip by rotarod test; assay type: toxicity, organism-based; design: dose 10 mg/kg, route intraperitoneal; conditions: in vivo
Mus musculus [3] = assay: Neurotoxicity in mouse assessed as effect on spontaneous motility at 10 mg/kg, ip by hole-board test; assay type: toxicity, organism-based; design: dose 10 mg/kg, route intraperitoneal; conditions: in vivo
Mus musculus [4] = assay: Neurotoxicity in mouse assessed as effect on gross behaviour at 10 mg/kg, ip by rotarod test; assay type: toxicity, organism-based; design: dose 10 mg/kg, route intraperitoneal; conditions: in vivo
Mus musculus [5] = assay: Neurotoxicity in mouse assessed as effect on inspection activity at 10 mg/kg, ip by hole-board test; assay type: toxicity, organism-based; design: dose 10 mg/kg, route intraperitoneal; conditions: in vivo
Mus musculus [6] = assay: Nootropic activity against scopolamine-induced amnesia in mouse assessed as increase in latency period to enter dark room up to 10 mg/kg, ip administered 20 mins prior to test by passive avoidance test (reference value: 91.7 sec); assay type: functional, organism-based; design: dose 10 mg/kg
Mus musculus [7] = assay: Nootropic activity against scopolamine-induced amnesia in mouse assessed as increase in latency time to enter dark room at 1 mg/kg, ip administered 20 mins prior to test by passive avoidance test (reference value: 91.7 sec); assay type: functional; conditions: route intraperitoneal
Mus musculus [8] = assay: Neurotoxicity in mouse assessed as effect on motor coordination at 1 mg/kg, ip by rotarod test; assay type: toxicity, organism-based; design: dose 1 mg/kg, route intraperitoneal; conditions: in vivo
Mus musculus [9] = assay: Neurotoxicity in mouse assessed as effect on spontaneous motility at 1 mg/kg, ip by hole-board test; assay type: toxicity, organism-based; design: dose 1 mg/kg, route intraperitoneal; conditions: in vivo
Mus musculus [10] = assay: Neurotoxicity in mouse assessed as effect on gross behavior at 1 mg/kg, ip by rota-rod test; assay type: toxicity, organism-based; design: dose 1 mg/kg, route intraperitoneal; conditions: in vivo
Mus musculus [11] = assay: Neurotoxicity in mouse assessed as effect on inspection activity at 1 mg/kg, ip by hole-board test; assay type: toxicity, organism-based; design: dose 1 mg/kg, route intraperitoneal; conditions: in vivo
Mus musculus [12] = assay: Nootropic activity against scopolamine-induced amnesia in mouse assessed as increase in latency time to enter dark room at 0.01 mg/kg, ip administered 20 mins prior to test by passive avoidance test (reference value: 91.7 sec); assay type: functional; conditions: route intraperitoneal
Mus musculus [13] = assay: Neurotoxicity in mouse assessed as effect on motor coordination at 0.01 mg/kg, ip by rotarod test; assay type: toxicity, organism-based; design: dose 0.01 mg/kg, route intraperitoneal; conditions: in vivo
Mus musculus [14] = assay: Neurotoxicity in mouse assessed as effect on spontaneous motility at 0.01 mg/kg, ip by hole-board test; assay type: toxicity, organism-based; design: dose 0.01 mg/kg, route intraperitoneal; conditions: in vivo
Mus musculus [15] = assay: Neurotoxicity in mouse assessed as effect on gross behavior at 0.01 mg/kg, ip by rota-rod test; assay type: toxicity, organism-based; design: dose 0.01 mg/kg, route intraperitoneal; conditions: in vivo
Mus musculus [16] = assay: Neurotoxicity in mouse assessed as effect on inspection activity at 0.01 mg/kg, ip by hole-board test; assay type: toxicity, organism-based; design: dose 0.01 mg/kg, route intraperitoneal; conditions: in vivo
Mus musculus [17] = assay: Neurotoxicity in mouse assessed as effect on motor coordination at 30 mg/kg, ip by rotarod test; assay type: toxicity, organism-based; design: dose 30 mg/kg, route intraperitoneal; conditions: in vivo
Mus musculus [18] = assay: Neurotoxicity in mouse assessed as effect on spontaneous motility at 30 mg/kg, ip by hole-board test; assay type: toxicity, organism-based; design: dose 30 mg/kg, route intraperitoneal; conditions: in vivo
Mus musculus [19] = assay: Neurotoxicity in mouse assessed as effect on gross behavior at 30 mg/kg, ip by rota-rod test; assay type: toxicity, organism-based; design: dose 30 mg/kg, route intraperitoneal; conditions: in vivo
Mus musculus [20] = assay: Neurotoxicity in mouse assessed as effect on inspection activity at 30 mg/kg, ip by hole-board test; assay type: toxicity, organism-based; design: dose 30 mg/kg, route intraperitoneal; conditions: in vivo
Mus musculus [21] = assay: Nootropic activity against scopolamine-induced amnesia in mouse assessed as increase in latency time to enter dark room at 0.001 mg/kg, ip administered 20 mins prior to test by passive avoidance test (reference value: 91.7 sec); assay type: functional; conditions: route intraperitoneal
Mus musculus [22] = assay: Neurotoxicity in mouse assessed as effect on motor coordination at 0.001 mg/kg, ip by rotarod test; assay type: toxicity, organism-based; design: dose 0.001 mg/kg, route intraperitoneal; conditions: in vivo
Mus musculus [23] = assay: Neurotoxicity in mouse assessed as effect on spontaneous motility at 0.001 mg/kg, ip by hole-board test; assay type: toxicity, organism-based; design: dose 0.001 mg/kg, route intraperitoneal; conditions: in vivo
Mus musculus [24] = assay: Neurotoxicity in mouse assessed as effect on gross behaviour at 0.001 mg/kg, ip by rotarod test; assay type: toxicity, organism-based; design: dose 0.001 mg/kg, route intraperitoneal; conditions: in vivo
Mus musculus [25] = assay: Neurotoxicity in mouse assessed as effect on inspection activity at 0.001 mg/kg, ip by hole-board test; assay type: toxicity, organism-based; design: dose 0.001 mg/kg, route intraperitoneal; conditions: in vivo

Compound: CCC(=O)NC1CCCN(S(=O)(=O)c2ccc(F)cc2)CC1 (stereo unspecified)
- Time (Mus musculus [1]): 46.8 s
- Activity (Mus musculus [2]): Non-toxic
- Activity (Mus musculus [3]): Non-toxic
- Activity (Mus musculus [4]): Non-toxic
- Activity (Mus musculus [5]): Non-toxic

Compound: CCC(=O)N1CCCN(S(=O)(=O)c2ccc(F)cc2)CCC1
- Activity (Mus musculus [6]): inactive

Compound: CC(=O)N1CCCC(NS(=O)(=O)c2ccc(F)cc2)CC1 (stereo unspecified)
- Time (Mus musculus [7]): 45.8 s
- Activity (Mus musculus [8]): Non-toxic
- Activity (Mus musculus [9]): Non-toxic
- Activity (Mus musculus [10]): Non-toxic
- Activity (Mus musculus [11]): Non-toxic

Compound: CC(=O)NC1CCN(S(=O)(=O)c2ccc(F)cc2)CC1 [SAPUNIFIRAM]
- Time (Mus musculus [12]): 76.1 s
- Activity (Mus musculus [13]): Non-toxic
- Activity (Mus musculus [14]): Non-toxic
- Activity (Mus musculus [15]): Non-toxic
- Activity (Mus musculus [16]): Non-toxic

Compound: CCC(=O)N1CCC(NS(=O)(=O)c2ccc(F)cc2)C1 (stereo unspecified)
- Activity (Mus musculus [6]): inactive

Compound: NC(=O)CN1CCCC1=O [PIRACETAM]
- Activity (Mus musculus [17]): Non-toxic
- Activity (Mus musculus [18]): Non-toxic
- Activity (Mus musculus [19]): Non-toxic
- Activity (Mus musculus [20]): Non-toxic

Compound: CCC(=O)NC1CN(C(=O)c2ccccc2)C1
- Activity (Mus musculus [6]): inactive

Compound: CCC(=O)N1CCC(NC(=O)c2ccccc2)C1 (stereo unspecified)
- Activity (Mus musculus [6]): inactive

Compound: CCC(=O)N1CCCC(NC(=O)c2ccccc2)CC1 (stereo unspecified)
- Time (Mus musculus [7]): 69.4 s
- Activity (Mus musculus [8]): Non-toxic
- Activity (Mus musculus [9]): Non-toxic
- Activity (Mus musculus [10]): Non-toxic
- Activity (Mus musculus [11]): Non-toxic

Compound: CCC(=O)NC1CCCN(C(=O)c2ccccc2)CC1 (stereo unspecified)
- Time (Mus musculus [7]): 62.7 s
- Activity (Mus musculus [8]): Non-toxic
- Activity (Mus musculus [9]): Non-toxic
- Activity (Mus musculus [10]): Non-toxic
- Activity (Mus musculus [11]): Non-toxic

Compound: CCC(=O)N[C@H]1CCN(S(=O)(=O)c2ccc(F)cc2)C1
- Time (Mus musculus [7]): 56.6 s
- Activity (Mus musculus [8]): Non-toxic
- Activity (Mus musculus [9]): Non-toxic
- Activity (Mus musculus [10]): Non-toxic
- Activity (Mus musculus [11]): Non-toxic

Compound: CC(=O)N1CCC(NS(=O)(=O)c2ccc(F)cc2)C1 (stereo unspecified)
- Activity (Mus musculus [6]): inactive

Compound: CCC(=O)N1CCN(C(=O)c2ccccc2)CC1 [SUNIFIRAM]
- Time (Mus musculus [21]): 71 s
- Activity (Mus musculus [22]): Non-toxic
- Activity (Mus musculus [23]): Non-toxic
- Activity (Mus musculus [24]): Non-toxic
- Activity (Mus musculus [25]): Non-toxic

Compound: CC(=O)NC1CCCN(S(=O)(=O)c2ccc(F)cc2)CC1 (stereo unspecified)
- Activity (Mus musculus [6]): inactive
- Time (Mus musculus [7]): 62.7 s

Compound: CC(=O)NC1CCN(C(=O)c2ccccc2)C1 (stereo unspecified)
- Time (Mus musculus [1]): 70.3 s
- Activity (Mus musculus [2]): Non-toxic
- Activity (Mus musculus [3]): Non-toxic
- Activity (Mus musculus [4]): Non-toxic
- Activity (Mus musculus [5]): Non-toxic
